{"source": "patent US20090275499A1", "about": "“NONSTRUCTURAL PROTEIN NS1 AS A NOVEL THERAPEUTIC TARGET AGAINST FLAVIVIRUSES” (priority 2008, published 2009)", "key": {"DENV sNS1 secretion [1]": {"system": "DENV sNS1 secretion", "settings": "DENV-infected Vero cells; Flamand et al., 1999; cited from earlier work"}, "DENV sNS1 secretion [2]": {"system": "DENV sNS1 secretion", "experimental": "Vero cells were infected with DENV-1 at an MOI of 1 for 2 h at 37° C. An uninfected control was included. At seven hours post infection, cells were either mock-treated or treated with D-threo-1-phenyl-2-palmitoylamino-3-pyrrolidino-1-propanol (P4; Calbiochem, San Diego, Calif.) at 2 or 5 μM, combined or not with 1 mM DMJ (Calbiochem, San Diego, Calif.). At 24 hours post infection, cells were washed and incubated for 1 h in methionine/cysteine-free DMEM before metabolically labeling proteins for 4 h in methionine/cysteine-free DMEM supplemented with a mix of ^35S-labeled methionine/cysteine. The NS1 protein was then immunoprecipitated from cell lysates prepared in 25 mM Tris-HCl pH 7.6, 150 mM NaCl, 1% NP-40, 1% sodium deoxycholate, 0.1% SDS, or from the supernatant, with anti-NS1 MAb 13A1 (kindly provided by Dr. Robert Putnak). Immunoprecipitated proteins were separated by SDS-PAGE and detected on an X-ray film."}, "Vero cells": {"system": "Vero cells", "settings": "5 μM P4, Vero cells"}, "[3]": {"system": "TNF-α-mediated induction of E-selectin expression", "experiment": "TNF-α-mediated induction of E-selectin expression in HUVEC (cell-based ELISA)", "design": "species or system human", "settings": "TNF-α 10 ng/ml pre-incubated with PMB"}, "DENV sNS1 protein": {"system": "DENV sNS1 protein", "experiment": "Inhibition of DENV sNS1-mediated endothelial cell activation (E-selectin cell-based ELISA in HUVEC)", "design": "species or system Dengue virus (DENV-1)", "experimental": "Activation of endothelial cells by the DENV sNS1 protein has been monitored by the production of adhesion molecule E-selectine, as previously described (Kayal et al., 1999). Briefly, HUVEC cell monolayers were incubated with various concentrations of the purified sNS1 protein for different periods of time. Cells were washed once with warm M199 medium supplemented with 20% FCS and twice with serum-free M199 before fixation for 10 min in ice-cold PBS containing 4% paraformaldehyde. Cells were then rinsed with PBS and treated with a 10% bovine serum albumin (BSA) solution in PBS to reduce non-specific binding of antibodies. Plates were then sequentially incubated for 2 h at room temperature (RT) with primary anti-E-selectin monoclonal antibody (BBA2, R&D Systems, Minneapolis, Minn.) at a dilution of 1:2000 in PBS containing 5% BSA (PBS/BSA), and a secondary peroxidase-conjugated rabbit anti-mouse IgG (Sigma, St. Louis, Mo.) at a dilution of 1:4000 in PBS/BSA. After extensive washes in PBS/BSA and PBS alone, bound antibodies were detected using the TMB Microwell peroxidase substrate system (KPL). The reaction was stopped after 3-5 min by addition of 2.5 N sulfuric acid and the absorbance values were read at a wavelength of 450 nm. […]"}}, "note": "“Also recorded” adds a separate entry of the source."}
{"molecule": "OC[C@H]1NC[C@@H](O)[C@@H](O)[C@@H]1O", "note": "[DMJ, deoxymannojirymicin]", "values": [{"measurement": "sNS1 secretion, DMJ alone", "setting": "DENV sNS1 secretion [1]", "result": "impairs sNS1 secretion"}, {"measurement": "sNS1 secretion, combination of P4 and DMJ", "setting": "DENV sNS1 secretion [2]; P4 2 or 5 μM + DMJ 1 mM, DENV-infected Vero (kidney) cells", "result": "additional effect on P4 inhibition"}]}
{"molecule": "CCCCCCCCCCCCCCCC(=O)N[C@H](CN1CCCC1)[C@H](O)c1ccccc1", "note": "[P4, D-threo-1-phenyl-2-palmitoylamino-3-pyrrolidino-1-propanol]", "values": [{"measurement": "secretion of sNS1", "setting": "DENV sNS1 secretion [2]; P4 alone, DENV-infected Vero cells, MOI 1, effect stated at 5 μM P4", "result": "significantly reduced; also recorded: interferes with sNS1 secretion"}, {"measurement": "cell viability", "setting": "Vero cells", "result": "without compromising cell viability"}]}
{"molecule": "polymyxin B [PMB]", "values": [{"measurement": "TNF-α-mediated induction of E-selectin expression", "setting": "[3]", "result": "did not show any effect"}, {"measurement": "expression of E-selectin in response to the sNS1 protein", "setting": "DENV sNS1 protein; HUVEC pulse treated with sNS1 (10 μg/ml) pre-incubated with PMB 2 and 10 μg/ml, 15 min-6 h, fixed at 6 h", "result": "repressive effect"}, {"measurement": "sNS1-induced HUVEC (endothelial cell) activation", "setting": "DENV sNS1 protein; no detectable LPS in purified sNS1 preparations", "result": "very efficiently block endothelial cell activation by sNS1; also recorded: abrogated the ability of DENV sNS1 to activate HUVEC; also recorded: blocks sNS1-induced HUVEC activation"}]}
